{
  "source": "paper PMC8904520",
  "about": "“Characterization of a small-molecule inhibitor targeting NEMO/IKKβ to suppress colorectal cancer growth” (Signal Transduction and Targeted Therapy, 2022)",
  "key": {"[1]": {"target": "T1, NEMO/IKKβ complex (MBP-IKKβ (701–745) / GST-NEMO (1–196)) (Homo sapiens, UniProt Q9Y6K9)", "T1 construct": "made in house; host or cells: E. coli BL21(DE3)", "T1 sequence (Q9Y6K9 1-196, one chain of several)": "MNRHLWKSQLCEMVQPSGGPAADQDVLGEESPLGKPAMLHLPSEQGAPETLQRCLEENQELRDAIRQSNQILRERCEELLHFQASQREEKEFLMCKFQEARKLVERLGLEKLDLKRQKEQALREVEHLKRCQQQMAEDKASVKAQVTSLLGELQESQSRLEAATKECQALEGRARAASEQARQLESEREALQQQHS", "assay": "SPR competition assay of NEMO/IKKβ binding", "procedure": "MBP-IKKβ was immobilized on the surface of the CM5 chip using the amine-coupling approach at a flow rate of 10 μL/min in 10 mM sodium acetate buffer (pH 5.0). The sensor surface was activated with a 7 min injection of a mixture comprising 50 mM N-hydroxysuccinimide (NHS) and 200 mM 1-ethyl-3-(3- dimethylaminopropyl) carbodiimide (EDC). Then, 33 μg/mL of IKKβ was injected to reach the target level of 500 RU and the surface was blocked with 1 M ethanolamine, pH 8.5. A series of concentrations of NEMO or SHK were injected into the flow system and analyzed for 90 or 120 s, followed by dissociation for 90 or 600 s. All binding analyses was performed in phosphate-buffered saline (PBS, pH 7.4) with 0.05% (v/v) Tween-20 at 25 °C. Prior to analysis, double reference subtractions were made to eliminate bulk refractive index changes, injection noise, and data drift. The binding affinity was determined by fitting to a Langmuir 1:1 binding model in the Biacore Evaluation software (GE Healthcare).\nAccording to the instructions from GE, an anti-GST antibody was immobilized onto the CM5 chip surface. The sensor surface was activated with NHS and EDC, after which 15 μg/mL of anti-GST antibody was injected for 420 s and the surface was blocked with 1 M ethanolamine, pH 8.5. […] For each analyte, 50 μg/mL of GST-G was captured for 60 s and 10 mM glycine-HCl (pH 2.1) was used to regenerate the surface. MBP-B was analyzed with 120 s injection and 120 s dissociation. A series of SHK concentrations was analyzed with 90 s injection and 90 s dissociation.\nFor the competition assay, we tried two methods with MBP-IKKβ and GST-NEMO immobilized separately. Mixtures including series concentrations of SHK and 1 μM GST-NEMO were tested on MBP-IKKβ-immobilized surface; while other mixtures including series concentrations of SHK and 0.5 μM MBP-IKKβ were tested on GST-NEMO-captured surface. […] By recording the binding responses at 120 s, the inhibition effects of SHK were calculated to determine the IC50."}, "[2]": {"target": "T2, NEMO/IKKβ complex (Homo sapiens, UniProt O14920+Q9Y6K9)", "T2 construct": "expressed in transfected cells; host or cells: HEK293T", "assay": "Co-immunoprecipitation of NEMO/IKKβ", "settings": "Co-IP", "procedure": "The pre-cleared cell lysates were incubated with an anti-HA antibody on a rotating platform at 4 °C for 2 h, and then incubated for another 6 h with protein A/G-sepharose beads. The sepharose beads were washed three times with binding buffer, mixed with gel loading buffer and boiled for 5 min. The samples were centrifuged and the supernatants were used for western blot analysis. A specific antibody against the Flag-tag was applied for the detection of proteins.\nThe IKKβ and NEMO expression vectors were constructed by subcloning the full-length cDNA to pENTER-4T1 expression vector (Flag- or HA-tagged) developed by ViGene Biosciences, as described previously.[25] The 293T cells (1 × 10^6) were plated into 60 mm dishes for 1 day, and then transfected with the relevant plasmids encoding HA-IKKβ and Flag-NEMO using Lipofectamine 2000 transfection reagent (Invitrogen). After transfection, the cells were cultured for another 24 h. Subsequently, the transfected cells were trypsinized and seeded into 60 mm dishes, followed by culturing with fresh medium containing the indicated doses of SHK for 48 h, and then collected for the Co-IP assay."}},
  "note": "Where “and” joins values, the source holds several entries; their conditions need not be identical. Identical values can stand only once. Like-named read-outs stand apart in the source and are kept apart here.",
  "data": [
    {"compound": "CC(C)=CC[C@@H](O)C1=CC(=O)c2c(O)ccc(O)c2C1=O", "note": "[SHK, Shikonin]", "values": [
      {"measurement": "IC50", "setting": "[1]; IC50 for impairing binding of GST-NEMO (1–196) to MBP-IKKβ (701–745), MBP-IKKβ immobilized, SHK pre-incubated with 1 μM GST-NEMO for 30 min", "result": "176 ± 26.4", "unit": "nM"},
      {"measurement": "IC50", "setting": "[1]; IC50 for inhibiting binding of MBP-IKKβ (701–745) to GST-NEMO (1–196), GST-NEMO immobilized, SHK pre-incubated with 0.5 μM MBP-IKKβ for 30 min", "result": "171 ± 35.6", "unit": "nM"},
      {"measurement": "IC50", "setting": "[1]; summary value as quoted in abstract, introduction, discussion, read-out: IC50 for destabilizing / inhibiting NEMO/IKKβ complex formation", "result": "174 nM and ~170 nM"},
      {"measurement": "association of full-length HA-IKKβ and Flag-NEMO", "setting": "[2]; HEK293T cells", "result": "greatly reduced"},
      {"measurement": "ability to destabilize the NEMO/IKKβ complex", "setting": "[2]; pre-formed complex", "result": "effectively reversed their association"}
    ]}
  ]
}
